Data reported in paper PMC10141580, “Cyclic Dichalcogenides Extend the Reach of Bioreductive Prodrugs to Harness Thiol/Disulfide Oxidoreductases: Applications to seco-Duocarmycins Targeting the Thioredoxin System” (ACS Central Science, 2023).
Like-named read-outs stand apart in the source and are kept apart here.

How the values were obtained:
[1] = test system: NCI-60 standardized human tumor cell line panel; assay: cells; assay type: cell-based
A549 cells = assay: Resazurin cytotoxicity assay, A549, 72 h; conditions: read-out: IC50(nM): A549
Protocol: We used A549 lung cancer and HeLa cervical cancer cell lines for initial screening of the prodrugs.
Fi gure S9: Cell ular resazurin-based cytotoxi ci ty as s a y.
Dose -response curves were calculated from at least 27 incremental single concentrations over a range
of at least three log units. Individual experiments with annotated experiment numbers are shown for each prodrug

mouse = assay: Tolerability for repeated dose administration in vivo (summary)
[2] = cell line A549/ATCC (LC:A549/ATCC), TMI sheet
[3] = cell line BT-549 (BR:BT-549), TMI sheet
[4] = cell line CCRF-CEM (LE:CCRF-CEM), TMI sheet
[5] = cell line COLO 205 (CO:COLO 205), TMI sheet
[6] = cell line EKVX (LC:EKVX), TMI sheet
[7] = cell line HCC-2998 (CO:HCC-2998), TMI sheet
[8] = cell line HCT-15 (CO:HCT-15), TMI sheet
[9] = cell line HCT-116 (CO:HCT-116), TMI sheet
[10] = cell line HL-60(TB) (LE:HL-60(TB)), TMI sheet
[11] = cell line HOP-62 (LC:HOP-62), TMI sheet
[12] = cell line HOP-92 (LC:HOP-92), TMI sheet
[13] = cell line HT29 (CO:HT29), TMI sheet
[14] = cell line K-562 (LE:K-562), TMI sheet
[15] = cell line KM12 (CO:KM12), TMI sheet
[16] = cell line LOX IMVI (ME:LOX IMVI), TMI sheet
[17] = cell line M14 (ME:M14), TMI sheet
[18] = cell line MALME-3M (ME:MALME-3M), TMI sheet
[19] = cell line MCF7 (BR:MCF7), TMI sheet
[20] = cell line MDA-MB-435 (ME:MDA-MB-435), TMI sheet
[21] = cell line MOLT-4 (LE:MOLT-4), TMI sheet
[22] = cell line NCI-H23 (LC:NCI-H23), TMI sheet
[23] = cell line NCI-H226 (LC:NCI-H226), TMI sheet
[24] = cell line RPMI-8226 (LE:RPMI-8226), TMI sheet
[25] = cell line SF-539 (CNS:SF-539), TMI sheet
[26] = cell line SK-MEL-5 (ME:SK-MEL-5), TMI sheet
[27] = cell line SK-MEL-28 (ME:SK-MEL-28), TMI sheet
[28] = cell line SNB-19 (CNS:SNB-19), TMI sheet
[29] = cell line SR (LE:SR), TMI sheet
[30] = cell line SW-620 (CO:SW-620), TMI sheet
[31] = cell line T-47D (BR:T-47D), TMI sheet
[32] = cell line U251 (CNS:U251), TMI sheet
[33] = cell line UACC-62 (ME:UACC-62), TMI sheet
[34] = cell line UACC-257 (ME:UACC-257), TMI sheet

With COc1cc2cc(C(=O)N3CC(CCl)c4c3cc(OC(=O)N3CCN(C)C5CSSCC53)c3ccccc43)[nH]c2c(OC)c1OC (mixture of isomers) [Me-SS66T-CBI-TMI] the GI50 ([1]; UACC-62, read-out: GI50) was 15 nM, the GI50 ([1]; UACC-257, read-out: GI50) was 24 nM and the “NCI-60 screening: Log(GI50)” value [1, 2] was -7.92. For the same compound, the “NCI-60 screening: Log(RedIndex)” value [1, 2] was 2.22, the GI50 ([1]; cell line A549/ATCC (LC:A549/ATCC), TMI sheet, read-out: NCI-60 screening: Raw GI50) was 12 nM and the “NCI-60 screening: Log(GI50)” value [1, 3] was -7.81. The “NCI-60 screening: Log(RedIndex)” value [1, 3] was 2.01, the GI50 ([1]; cell line BT-549 (BR:BT-549), TMI sheet, read-out: NCI-60 screening: Raw GI50) was 15 nM and the “NCI-60 screening: Log(GI50)” value [1, 4] was -7.58. For the same compound, the “NCI-60 screening: Log(RedIndex)” value [1, 4] was 1.58, the “NCI-60 screening: Log(GI50)” value [1, 5] was -7.31 and the “NCI-60 screening: Log(RedIndex)” value [1, 5] was 1.44. The “NCI-60 screening: Log(GI50)” value [1, 6] was -7.74, the “NCI-60 screening: Log(RedIndex)” value [1, 6] was 2.03 and the GI50 ([1]; cell line EKVX (LC:EKVX), TMI sheet, read-out: NCI-60 screening: Raw GI50) was 18 nM. For the same compound, the “NCI-60 screening: Log(GI50)” value [1, 7] was -7.81, the “NCI-60 screening: Log(RedIndex)” value [1, 7] was 1.99 and the GI50 ([1]; cell line HCC-2998 (CO:HCC-2998), TMI sheet, read-out: NCI-60 screening: Raw GI50) was 15 nM. The “NCI-60 screening: Log(GI50)” value [1, 8] was -7.66, the “NCI-60 screening: Log(RedIndex)” value [1, 8] was 1.9 and the “NCI-60 screening: Log(GI50)” value [1, 9] was -7.74. The “NCI-60 screening: Log(RedIndex)” value [1, 9] was 1.92, the GI50 ([1]; cell line HCT-116 (CO:HCT-116), TMI sheet, read-out: NCI-60 screening: Raw GI50) was 18 nM and the “NCI-60 screening: Log(GI50)” value [1, 10] was -7.92. The “NCI-60 screening: Log(RedIndex)” value [1, 10] was 1.8, the GI50 ([1]; cell line HL-60(TB) (LE:HL-60(TB)), TMI sheet, read-out: NCI-60 screening: Raw GI50) was 12 nM and the “NCI-60 screening: Log(GI50)” value [1, 11] was -7.91. For the same compound, the “NCI-60 screening: Log(RedIndex)” value [1, 11] was 1.68, the GI50 ([1]; cell line HOP-62 (LC:HOP-62), TMI sheet, read-out: NCI-60 screening: Raw GI50) was 12 nM and the “NCI-60 screening: Log(GI50)” value [1, 12] was -7.57. For the same compound, the “NCI-60 screening: Log(RedIndex)” value [1, 12] was 1.97, the GI50 ([1]; cell line HOP-92 (LC:HOP-92), TMI sheet, read-out: NCI-60 screening: Raw GI50) was 27 nM and the “NCI-60 screening: Log(GI50)” value [1, 13] was -7.47. For the same compound, the “NCI-60 screening: Log(RedIndex)” value [1, 13] was 1.65, the GI50 ([1]; cell line HT29 (CO:HT29), TMI sheet, read-out: NCI-60 screening: Raw GI50) was 34 nM and the “NCI-60 screening: Log(GI50)” value [1, 14] was -7.61. For the same compound, the “NCI-60 screening: Log(RedIndex)” value [1, 14] was 1.44, the GI50 ([1]; cell line K-562 (LE:K-562), TMI sheet, read-out: NCI-60 screening: Raw GI50) was 25 nM and the “NCI-60 screening: Log(GI50)” value [1, 15] was -7.36. The “NCI-60 screening: Log(RedIndex)” value [1, 15] was 1.68, the “NCI-60 screening: Log(GI50)” value [1, 16] was -7.91 and the “NCI-60 screening: Log(RedIndex)” value [1, 16] was 1.96. The GI50 ([1]; cell line LOX IMVI (ME:LOX IMVI), TMI sheet, read-out: NCI-60 screening: Raw GI50) was 12 nM, the “NCI-60 screening: Log(GI50)” value [1, 17] was -7.98 and the “NCI-60 screening: Log(RedIndex)” value [1, 17] was 2.16. For the same compound, the GI50 ([1]; cell line M14 (ME:M14), TMI sheet, read-out: NCI-60 screening: Raw GI50) was 10 nM, the “NCI-60 screening: Log(GI50)” value [1, 18] was -7.86 and the “NCI-60 screening: Log(RedIndex)” value [1, 18] was 2.06. The “NCI-60 screening: Log(GI50)” value [1, 19] was -8.28, the “NCI-60 screening: Log(RedIndex)” value [1, 19] was 1.78 and the “NCI-60 screening: Log(GI50)” value [1, 20] was -7.56. The “NCI-60 screening: Log(RedIndex)” value [1, 20] was 1.81, the GI50 ([1]; cell line MDA-MB-435 (ME:MDA-MB-435), TMI sheet, read-out: NCI-60 screening: Raw GI50) was 27 nM and the “NCI-60 screening: Log(GI50)” value [1, 21] was -8. The “NCI-60 screening: Log(RedIndex)” value [1, 21] was 1.78, the “NCI-60 screening: Log(GI50)” value [1, 22] was -8.02 and the “NCI-60 screening: Log(RedIndex)” value [1, 22] was 1.69. For the same compound, the GI50 ([1]; cell line NCI-H23 (LC:NCI-H23), TMI sheet, read-out: NCI-60 screening: Raw GI50) was 9.5 nM, the “NCI-60 screening: Log(GI50)” value [1, 23] was -7.02 and the “NCI-60 screening: Log(RedIndex)” value [1, 23] was 1.18. For the same compound, the “NCI-60 screening: Log(GI50)” value [1, 24] was -7.47, the “NCI-60 screening: Log(RedIndex)” value [1, 24] was 1.64 and the GI50 ([1]; cell line RPMI-8226 (LE:RPMI-8226), TMI sheet, read-out: NCI-60 screening: Raw GI50) was 34 nM. The “NCI-60 screening: Log(GI50)” value ([1]; cell line SF-268 (CNS:SF-268), TMI sheet) was -7.83, the GI50 ([1]; cell line SF-268 (CNS:SF-268), TMI sheet, read-out: NCI-60 screening: Raw GI50) was 15 nM and the “NCI-60 screening: Log(GI50)” value ([1]; cell line SF-295 (CNS:SF-295), TMI sheet) was -8.01. For the same compound, the “NCI-60 screening: Log(GI50)” value [1, 25] was -8, the “NCI-60 screening: Log(RedIndex)” value [1, 25] was 2.12 and the GI50 ([1]; cell line SF-539 (CNS:SF-539), TMI sheet, read-out: NCI-60 screening: Raw GI50) was 10 nM. For the same compound, the “NCI-60 screening: Log(GI50)” value [1, 26] was -7.88, the “NCI-60 screening: Log(RedIndex)” value [1, 26] was 2.09 and the “NCI-60 screening: Log(GI50)” value [1, 27] was -7.84. For the same compound, the “NCI-60 screening: Log(RedIndex)” value [1, 27] was 2.39, the GI50 ([1]; cell line SK-MEL-28 (ME:SK-MEL-28), TMI sheet, read-out: NCI-60 screening: Raw GI50) was 15 nM and the “NCI-60 screening: Log(GI50)” value [1, 28] was -7.79. The “NCI-60 screening: Log(RedIndex)” value [1, 28] was 2.13, the GI50 ([1]; cell line SNB-19 (CNS:SNB-19), TMI sheet, read-out: NCI-60 screening: Raw GI50) was 16 nM and the “NCI-60 screening: Log(GI50)” value [1, 29] was -8.4. The “NCI-60 screening: Log(RedIndex)” value [1, 29] was 1.84, the “NCI-60 screening: Log(GI50)” value [1, 30] was -7.24 and the “NCI-60 screening: Log(RedIndex)” value [1, 30] was 1.51. The GI50 ([1]; cell line SW-620 (CO:SW-620), TMI sheet, read-out: NCI-60 screening: Raw GI50) was 58 nM, the “NCI-60 screening: Log(GI50)” value [1, 31] was -7.3 and the “NCI-60 screening: Log(RedIndex)” value [1, 31] was 1.58. The “NCI-60 screening: Log(GI50)” value [1, 32] was -7.96, the “NCI-60 screening: Log(RedIndex)” value [1, 32] was 2.14 and the “NCI-60 screening: Log(GI50)” value [1, 33] was -7.82. The “NCI-60 screening: Log(RedIndex)” value [1, 33] was 2.01, the GI50 ([1]; cell line UACC-62 (ME:UACC-62), TMI sheet, read-out: NCI-60 screening: Raw GI50) was 15 nM and the “NCI-60 screening: Log(GI50)” value [1, 34] was -7.62. The “NCI-60 screening: Log(RedIndex)” value [1, 34] was 1.92, the mean reductive index ([1]; mean over NCI cell lines, vs P-CC60) was “ca. 70” and the GI50 ([1]; read-out: NCI-60 screening: Raw GI50) was 160 nM. The IC50 (A549 cells) was 5.9 nM, the remarks (mouse; repeated dose administration) was “well tolerated” and the “well-tolerated dose” value (mouse; weekly or twice-weekly administration) was 3 mg/kg.
